Values quoted from earlier work, collected in patent US11065266B2, “Method of treating melanoma using an inhibitor of an atypical protein kinase C” (UNIVERSITY OF SOUTH FLORIDA, priority 2016, dated 2021).

Molecular target: T1, PKC-ι (Homo sapiens, UniProt P41743)
T1 sequence (P41743 1-596): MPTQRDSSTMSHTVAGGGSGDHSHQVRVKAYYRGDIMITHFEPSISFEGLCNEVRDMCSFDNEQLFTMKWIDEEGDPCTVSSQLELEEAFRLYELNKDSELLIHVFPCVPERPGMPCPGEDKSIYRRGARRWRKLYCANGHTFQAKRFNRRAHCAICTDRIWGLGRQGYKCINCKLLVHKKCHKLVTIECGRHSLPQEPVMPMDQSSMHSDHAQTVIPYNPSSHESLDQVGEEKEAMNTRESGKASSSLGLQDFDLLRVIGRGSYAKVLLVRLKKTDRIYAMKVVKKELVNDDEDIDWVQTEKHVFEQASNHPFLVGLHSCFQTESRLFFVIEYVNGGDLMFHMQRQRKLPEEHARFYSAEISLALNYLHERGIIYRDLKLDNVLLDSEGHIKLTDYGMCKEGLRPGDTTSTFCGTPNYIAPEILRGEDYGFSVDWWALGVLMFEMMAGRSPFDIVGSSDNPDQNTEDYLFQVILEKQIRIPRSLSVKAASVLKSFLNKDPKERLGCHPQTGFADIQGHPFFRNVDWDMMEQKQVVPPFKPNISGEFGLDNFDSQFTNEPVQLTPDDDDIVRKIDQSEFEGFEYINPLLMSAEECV
Details: cited from earlier work

| SMILES | binding to PKC-ι |
| --- | --- |
| OC[C@H]1O[C@H]([S-])[C@H](O)[C@@H](O)[C@@H]1O.[Au+] [aurothioglucose] | low micromolar range |
| O=C([O-])CC([S-])C(=O)[O-].[Au+].[Na+].[Na+] (centres unmarked) [Sodium aurothiomalate] | low micromolar range |
